Laboratory results published in PubChem BioAssay (NCI).
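Results reflect a 48-hour exposure of cells in 96-well plates to compound at five concentrations. GI50 = concentration required for 50% inhibition of growth. TGI is the concentration that stops growth completely.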

Columns and labels:
Assay in all cases: inhibition of tumour cell growth, NCI panel, 48 h
NCI-H23 lung = test system: NCI-H23 lung
SW-620 colon = test system: SW-620 colon
NCI-H460 lung = test system: NCI-H460 lung
SK-OV-3 ovarian = test system: SK-OV-3 ovarian
CCRF-CEM leukemia = test system: CCRF-CEM leukemia
RPMI-8226 leukemia = test system: RPMI-8226 leukemia
T-47D breast = test system: T-47D breast
SK-MEL-28 melanoma = test system: SK-MEL-28 melanoma
HCT-116 colon = test system: HCT-116 colon
SF-268 CNS = test system: SF-268 CNS
PC-3 prostate = test system: PC-3 prostate
TK-10 renal = test system: TK-10 renal
UO-31 renal = test system: UO-31 renal
KM12 colon = test system: KM12 colon
MALME-3M melanoma = test system: MALME-3M melanoma
SK-MEL-5 melanoma = test system: SK-MEL-5 melanoma
HCT-15 colon = test system: HCT-15 colon
MDA-MB-435 = test system: MDA-MB-435
OVCAR-3 ovarian = test system: OVCAR-3 ovarian
HOP-62 NSCLC = test system: HOP-62 NSCLC
ACHN renal = test system: ACHN renal
SNB-75 CNS = test system: SNB-75 CNS
SK-MEL-2 melanoma = test system: SK-MEL-2 melanoma
M14 melanoma = test system: M14 melanoma
HT29 colon = test system: HT29 colon
HS 578T breast = test system: HS 578T breast
OVCAR-4 ovarian = test system: OVCAR-4 ovarian
SF-539 CNS = test system: SF-539 CNS
A549 NSCLC = test system: A549 NSCLC
NCI-H522 lung = test system: NCI-H522 lung
HOP-92 NSCLC = test system: HOP-92 NSCLC
CAKI-1 renal = test system: CAKI-1 renal
MCF7 breast = test system: MCF7 breast
COLO 205 colon = test system: COLO 205 colon
SR leukemia = test system: SR leukemia
UACC-62 melanoma = test system: UACC-62 melanoma
DU-145 prostate = test system: DU-145 prostate
NCI-H226 lung = test system: NCI-H226 lung
HL-60(TB) leukemia = test system: HL-60(TB) leukemia
LOX IMVI melanoma = test system: LOX IMVI melanoma
SF-295 CNS = test system: SF-295 CNS
MDA-MB-231 breast = test system: MDA-MB-231 breast
IGROV1 ovarian = test system: IGROV1 ovarian
MOLT-4 leukemia = test system: MOLT-4 leukemia
HCC-2998 colon = test system: HCC-2998 colon
SNB-19 CNS = test system: SNB-19 CNS
UACC-257 melanoma = test system: UACC-257 melanoma
OVCAR-8 ovarian = test system: OVCAR-8 ovarian
OVCAR-5 ovarian = test system: OVCAR-5 ovarian
A498 renal = test system: A498 renal
BT-549 breast = test system: BT-549 breast
MDA-MB-468 breast = test system: MDA-MB-468 breast
RXF 393 renal = test system: RXF 393 renal
SN12C renal = test system: SN12C renal
EKVX NSCLC = test system: EKVX NSCLC
K-562 leukemia = test system: K-562 leukemia
U251 CNS = test system: U251 CNS
786-0 renal = test system: 786-0 renal

`CC(=O)Nc1cccc(Nc2nc(NCc3ccccc3)c3ccccc3n2)c1` showed a GI50 (NCI-H23 lung) of 2.5 µM, a TGI (NCI-H23 lung) of 9.11 µM and a GI50 (SW-620 colon) of 1.83 µM. The TGI (SW-620 colon) was 3.37 µM, the GI50 (NCI-H460 lung) was 1.68 µM and the TGI (NCI-H460 lung) was 3.3 µM. For the same molecule, the GI50 (SK-OV-3 ovarian) was over 10 µM, the TGI (SK-OV-3 ovarian) was over 10 µM and the GI50 (CCRF-CEM leukemia) was 2.81 µM. For the same molecule, the TGI (CCRF-CEM leukemia) was 7.87 µM, the GI50 (RPMI-8226 leukemia) was 3.24 µM and the TGI (RPMI-8226 leukemia) was over 10 µM. It also gave a GI50 (T-47D breast) of 1.65 µM, a TGI (T-47D breast) of 3.81 µM and a GI50 (SK-MEL-28 melanoma) of 1.61 µM. The TGI (SK-MEL-28 melanoma) was 3.02 µM, the GI50 (HCT-116 colon) was 1.66 µM and the TGI (HCT-116 colon) was 3.16 µM. For the same molecule, the GI50 (SF-268 CNS) was over 10 µM, the TGI (SF-268 CNS) was over 10 µM and the GI50 (PC-3 prostate) was 2.32 µM. It also gave a TGI (PC-3 prostate) of 8.15 µM, a GI50 (TK-10 renal) of 3.12 µM and a TGI (TK-10 renal) of over 10 µM. The GI50 (UO-31 renal) was 1.73 µM, the TGI (UO-31 renal) was 5.41 µM and the GI50 (KM12 colon) was 2.11 µM. For the same molecule, the TGI (KM12 colon) was 4.91 µM, the GI50 (MALME-3M melanoma) was 1.48 µM and the TGI (MALME-3M melanoma) was 2.81 µM. For the same molecule, the GI50 (SK-MEL-5 melanoma) was 1.47 µM, the TGI (SK-MEL-5 melanoma) was 3.12 µM and the GI50 (HCT-15 colon) was 1.76 µM. The TGI (HCT-15 colon) was 3.45 µM, the GI50 (MDA-MB-435) was 1.7 µM and the TGI (MDA-MB-435) was 3.26 µM. It also gave a GI50 (OVCAR-3 ovarian) of 1.74 µM, a TGI (OVCAR-3 ovarian) of 3.3 µM and a GI50 (HOP-62 NSCLC) of 3.46 µM. For the same molecule, the TGI (HOP-62 NSCLC) was over 10 µM, the GI50 (ACHN renal) was 1.77 µM and the TGI (ACHN renal) was 3.66 µM. The GI50 (SNB-75 CNS) was 1.42 µM, the TGI (SNB-75 CNS) was 3.51 µM and the GI50 (SK-MEL-2 melanoma) was 3.41 µM. The TGI (SK-MEL-2 melanoma) was over 10 µM, the GI50 (M14 melanoma) was 1.66 µM and the TGI (M14 melanoma) was 3.11 µM. It also gave a GI50 (HT29 colon) of 1.84 µM, a TGI (HT29 colon) of 3.82 µM and a GI50 (HS 578T breast) of 2.16 µM. It also gave a TGI (HS 578T breast) of 5.96 µM, a GI50 (OVCAR-4 ovarian) of 1.79 µM and a TGI (OVCAR-4 ovarian) of 3.66 µM. It also gave a GI50 (SF-539 CNS) of 1.74 µM, a TGI (SF-539 CNS) of 3.15 µM and a GI50 (A549 NSCLC) of 2.82 µM. It also gave a TGI (A549 NSCLC) of over 10 µM, a GI50 (NCI-H522 lung) of 1.68 µM and a TGI (NCI-H522 lung) of 3.24 µM. The GI50 (HOP-92 NSCLC) was 1.52 µM, the TGI (HOP-92 NSCLC) was 7.85 µM and the GI50 (CAKI-1 renal) was 1.82 µM. It also gave a TGI (CAKI-1 renal) of 4.4 µM, a GI50 (MCF7 breast) of 1.61 µM and a TGI (MCF7 breast) of 3.06 µM. It also gave a GI50 (COLO 205 colon) of 1.9 µM, a TGI (COLO 205 colon) of 3.53 µM and a GI50 (SR leukemia) of 4.05 µM. The TGI (SR leukemia) was over 10 µM, the GI50 (UACC-62 melanoma) was 1.42 µM and the TGI (UACC-62 melanoma) was 2.74 µM. It also gave a GI50 (DU-145 prostate) of 5.41 µM, a TGI (DU-145 prostate) of over 10 µM and a GI50 (NCI-H226 lung) of 1.69 µM. The TGI (NCI-H226 lung) was 4.15 µM, the GI50 (HL-60(TB) leukemia) was 3.58 µM and the TGI (HL-60(TB) leukemia) was over 10 µM. For the same molecule, the GI50 (LOX IMVI melanoma) was 1.6 µM, the TGI (LOX IMVI melanoma) was 2.98 µM and the GI50 (SF-295 CNS) was 1.66 µM. The TGI (SF-295 CNS) was 3.05 µM, the GI50 (MDA-MB-231 breast) was 1.69 µM and the TGI (MDA-MB-231 breast) was 3.24 µM. It also gave a GI50 (IGROV1 ovarian) of 3.15 µM, a TGI (IGROV1 ovarian) of over 10 µM and a GI50 (MOLT-4 leukemia) of 3.08 µM. For the same molecule, the TGI (MOLT-4 leukemia) was over 10 µM, the GI50 (HCC-2998 colon) was 1.68 µM and the TGI (HCC-2998 colon) was 3.22 µM. The GI50 (SNB-19 CNS) was 2.49 µM, the TGI (SNB-19 CNS) was 9.38 µM and the GI50 (UACC-257 melanoma) was 1.86 µM. For the same molecule, the TGI (UACC-257 melanoma) was 3.74 µM, the GI50 (OVCAR-8 ovarian) was 2.25 µM and the TGI (OVCAR-8 ovarian) was 5.17 µM. The GI50 (OVCAR-5 ovarian) was 2.08 µM, the TGI (OVCAR-5 ovarian) was 5.67 µM and the GI50 (A498 renal) was over 10 µM. It also gave a TGI (A498 renal) of over 10 µM, a GI50 (BT-549 breast) of over 10 µM and a TGI (BT-549 breast) of over 10 µM. It also gave a GI50 (MDA-MB-468 breast) of 1.54 µM, a TGI (MDA-MB-468 breast) of 3.01 µM and a GI50 (RXF 393 renal) of 1.56 µM. The TGI (RXF 393 renal) was 3.22 µM, the GI50 (SN12C renal) was over 10 µM and the TGI (SN12C renal) was over 10 µM. The GI50 (EKVX NSCLC) was 4.01 µM, the TGI (EKVX NSCLC) was over 10 µM and the GI50 (K-562 leukemia) was 3.25 µM. It also gave a TGI (K-562 leukemia) of over 10 µM, a GI50 (U251 CNS) of 1.87 µM and a TGI (U251 CNS) of 3.93 µM. The GI50 (786-0 renal) was 1.83 µM and the TGI (786-0 renal) was 3.87 µM.
